Experiments:
Format in all cases: cell-based
H460 cells = experiment: MTT cytotoxicity on lung cancer cells (H460); details: medium with 0.5% serum
Protocol: H460 cells were dispensed in medium containing 0.5% serum at 1×10^4 per well, and were treated with the compounds. MTT solution (5 mg/mL) was diluted 10-fold, and dispensed at 10 μl per well, followed by culturing for 30 minutes. The precipitate was dissolved in 100 μl of DMSO, and the absorbance was measured using a microplate reader (Sunrise, TECAN) at a wavelength of […].

[1] = Cytotoxicity on normal cell line VERO (cell counting kit-8, WST-8); details: African green monkey, VERO cells (kidney cell line), read-out: Cytotoxicity CC50 (μM), ERO
Protocol: (§1) For the normal cell lines, five cell lines, VERO (African green monkey kidney cell line), HFL-1 (human embryonic lung cell line), L929 (NCTC clone 929, mouse fibroblast cell line), NIH 3T3 (mouse embryonic fibroblast cell line), and CHO-K1 (Chinese hamster overy cell line) were used.
(§2) For the cytotoxicity, all the cells were seeded at 1×10^4, and for a generalized test for investigating cell viability, the CC50 value, which is the concentration of a compound killing 50% of cells, was measured by cell counting kit-8 assay using tetrazolium salt named WST-8 displaying a pale yellow color.

[2] = Cytotoxicity on normal cell line HFL-1 (cell counting kit-8, WST-8); details: human, HFL-1 cells (embryonic lung cell line); HFL-1 normal cell line; read-out: Cytotoxicity CC50 (μM), FL-1
Protocol: as §1, §2

[3] = Cytotoxicity on normal cell line L929 (cell counting kit-8, WST-8); details: mouse, L929 cells (NCTC clone 929, fibroblast cell line)
Protocol: as §1, §2

[4] = Cytotoxicity on normal cell line NIH 3T3 (cell counting kit-8, WST-8); details: mouse, NIH 3T3 cells (embryonic fibroblast cell line); NIH 3T3 normal cell line
Protocol: as §1, §2

[5] = Cytotoxicity on normal cell line CHO-K1 (cell counting kit-8, WST-8); details: Chinese hamster, CHO-K1 cells (ovary cell line)
Protocol: as §1, §2

| SMILES | Inhibition of proliferation of H460 cells (MTT, FIG. 1) (H460 cells) | CC50 [1] [µM] | CC50 [2] [µM] | CC50 [3] [µM] | CC50 [4] [µM] | CC50 [5] [µM] |
| --- | --- | --- | --- | --- | --- | --- |
| Cc1ccnc(NC(=O)/C=C\C(=O)N2CCCCC2)c1 [Example 1-14, (Z)—N-(4-methylpyridin-2-yl)-4-oxo-4-(piperidin-1-yl)but-2-enamide] | significantly inhibited the proliferation of H460 cells in a dose-dependent manner | – | – | – | – | – |
| Cc1ccnc(NC(=O)/C=C\C(=O)N2CCOCC2)c1 [Example 1-20, (Z)—N-(4-methylpyridin-2-yl)-4-morpholino-4-oxobut-2-enamide] | significantly inhibited the proliferation of H460 cells in a dose-dependent manner | 100 | 100 | 100 | > 100 | > 100 |

From patent US20160152607A1, “MALEIC ACID DERIVATIVE, PRODUCTION METHOD FOR SAME, AND ANTI-CANCER COMPOSITION COMPRISING SAME” (Medicinal Bioconvergence Research Center, priority 2013, published 2016)
